We go through 17 molecules from US11021467B2, “Phosphatidylinositol 3-kinase inhibitors” (Gilead Sciences, Inc., priority 2014, dated 2021).

What all share (assay): TR-FRET enzymatic activity assay against PI3K isoforms
What all share (format): biochemical
Background: Time-resolved FRET reads energy transfer from a long-lived donor to a nearby acceptor.

For assay [1], the target named is PI3Kβ (Homo sapiens (Human), UniProt P42338). To be noted: PI3Kβ, TR-FRET, 2×Km ATP, 30 minutes at 25° C. The text has this:
(§1) The compounds of formula (I) were characterized for their enzymatic activity against the PI3K isoforms. […] TR-FRET monitored the formation of 3,4,5-inositol triphosphate molecule that competed with fluorescently labeled PIP3 for binding to the GRP-1 pleckstrin homology domain protein.

In assay [2] the target is PI3Kγ (Homo sapiens (Human), UniProt P48736). The conditions noted are these: 2×Km ATP, 30 minutes at 25° C.
Excerpt: as §1

Assay [3] has as its target PI3Kδ (Homo sapiens (Human), UniProt O00329). To be noted: 2×Km ATP, 30 minutes at 25° C.
Excerpt: as §1

Bounds are passed on as bounds.

Sequence of PI3Kδ (O00329 whole entry): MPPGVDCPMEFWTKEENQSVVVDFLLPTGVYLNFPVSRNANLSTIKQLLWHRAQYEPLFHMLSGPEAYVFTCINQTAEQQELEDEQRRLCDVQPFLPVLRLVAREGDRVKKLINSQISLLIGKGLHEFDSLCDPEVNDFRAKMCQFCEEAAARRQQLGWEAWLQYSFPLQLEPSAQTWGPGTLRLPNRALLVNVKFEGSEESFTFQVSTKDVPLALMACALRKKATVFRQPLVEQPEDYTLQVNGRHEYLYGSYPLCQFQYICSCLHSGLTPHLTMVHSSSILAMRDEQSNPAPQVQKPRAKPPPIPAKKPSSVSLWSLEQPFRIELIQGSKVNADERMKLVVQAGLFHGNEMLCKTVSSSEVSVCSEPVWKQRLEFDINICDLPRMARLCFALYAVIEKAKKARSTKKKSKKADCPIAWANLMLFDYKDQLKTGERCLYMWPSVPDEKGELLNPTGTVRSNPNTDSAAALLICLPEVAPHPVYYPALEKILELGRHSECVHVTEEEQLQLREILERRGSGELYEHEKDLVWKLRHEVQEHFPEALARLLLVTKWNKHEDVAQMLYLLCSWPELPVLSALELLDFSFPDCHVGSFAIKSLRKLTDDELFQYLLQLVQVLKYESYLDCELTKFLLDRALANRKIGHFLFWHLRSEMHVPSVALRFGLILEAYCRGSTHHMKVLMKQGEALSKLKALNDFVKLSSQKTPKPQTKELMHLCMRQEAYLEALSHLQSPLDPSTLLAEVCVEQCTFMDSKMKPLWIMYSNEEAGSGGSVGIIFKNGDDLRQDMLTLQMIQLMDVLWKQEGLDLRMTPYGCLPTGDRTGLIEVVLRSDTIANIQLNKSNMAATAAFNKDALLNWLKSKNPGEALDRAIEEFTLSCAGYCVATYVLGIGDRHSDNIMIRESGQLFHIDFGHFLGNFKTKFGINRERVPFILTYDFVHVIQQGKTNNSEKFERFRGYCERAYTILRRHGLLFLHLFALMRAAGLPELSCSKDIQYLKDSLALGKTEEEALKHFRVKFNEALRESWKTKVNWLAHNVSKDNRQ
Sequence of PI3Kδ (P27986 whole entry partner): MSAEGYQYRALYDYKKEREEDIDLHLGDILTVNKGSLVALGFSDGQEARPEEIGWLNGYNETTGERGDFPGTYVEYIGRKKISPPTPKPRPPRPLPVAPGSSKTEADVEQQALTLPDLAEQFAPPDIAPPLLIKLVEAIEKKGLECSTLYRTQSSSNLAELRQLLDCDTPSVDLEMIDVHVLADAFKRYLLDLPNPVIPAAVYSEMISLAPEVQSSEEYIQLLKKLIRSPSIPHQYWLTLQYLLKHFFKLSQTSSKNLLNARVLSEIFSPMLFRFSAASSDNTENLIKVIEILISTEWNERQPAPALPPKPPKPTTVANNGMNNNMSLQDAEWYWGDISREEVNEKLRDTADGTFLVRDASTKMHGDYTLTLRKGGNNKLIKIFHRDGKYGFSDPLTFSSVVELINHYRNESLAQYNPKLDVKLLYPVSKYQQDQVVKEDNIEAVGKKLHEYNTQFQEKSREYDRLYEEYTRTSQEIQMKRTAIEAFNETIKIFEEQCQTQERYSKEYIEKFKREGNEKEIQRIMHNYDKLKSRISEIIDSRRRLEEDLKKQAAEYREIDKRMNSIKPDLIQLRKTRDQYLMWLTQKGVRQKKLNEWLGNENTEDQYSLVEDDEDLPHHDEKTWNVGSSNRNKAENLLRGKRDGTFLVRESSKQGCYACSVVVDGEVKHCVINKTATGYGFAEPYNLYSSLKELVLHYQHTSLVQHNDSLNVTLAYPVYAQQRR
Sequence of PI3Kβ (P42338 whole entry, the tested form may be a part, canonical isoform): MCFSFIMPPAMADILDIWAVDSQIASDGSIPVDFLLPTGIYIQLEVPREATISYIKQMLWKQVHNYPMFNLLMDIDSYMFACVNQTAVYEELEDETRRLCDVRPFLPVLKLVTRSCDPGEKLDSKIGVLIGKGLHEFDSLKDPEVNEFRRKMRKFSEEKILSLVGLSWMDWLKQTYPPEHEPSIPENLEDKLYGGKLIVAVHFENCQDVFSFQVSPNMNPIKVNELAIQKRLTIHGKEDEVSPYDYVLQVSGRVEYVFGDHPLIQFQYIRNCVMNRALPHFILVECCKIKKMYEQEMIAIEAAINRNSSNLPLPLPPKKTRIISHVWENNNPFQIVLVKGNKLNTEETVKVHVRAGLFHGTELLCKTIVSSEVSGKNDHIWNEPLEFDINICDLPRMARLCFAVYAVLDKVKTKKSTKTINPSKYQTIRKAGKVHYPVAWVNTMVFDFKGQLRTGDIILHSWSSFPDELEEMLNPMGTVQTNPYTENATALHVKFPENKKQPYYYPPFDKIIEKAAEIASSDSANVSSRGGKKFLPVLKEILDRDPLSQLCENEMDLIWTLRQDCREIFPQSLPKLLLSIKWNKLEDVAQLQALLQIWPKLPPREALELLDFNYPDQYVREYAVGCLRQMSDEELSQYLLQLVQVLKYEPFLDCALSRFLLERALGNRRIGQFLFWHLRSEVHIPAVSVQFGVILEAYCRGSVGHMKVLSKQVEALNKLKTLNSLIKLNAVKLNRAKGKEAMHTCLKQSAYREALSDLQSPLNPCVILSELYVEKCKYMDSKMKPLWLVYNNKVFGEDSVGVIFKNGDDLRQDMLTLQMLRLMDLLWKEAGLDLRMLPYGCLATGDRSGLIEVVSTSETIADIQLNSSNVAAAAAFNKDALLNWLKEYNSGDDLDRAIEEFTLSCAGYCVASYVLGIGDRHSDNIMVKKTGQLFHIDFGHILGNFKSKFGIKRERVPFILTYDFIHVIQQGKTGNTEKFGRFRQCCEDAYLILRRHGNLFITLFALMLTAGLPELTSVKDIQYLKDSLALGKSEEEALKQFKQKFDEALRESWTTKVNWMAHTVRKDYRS
Sequence of PI3Kβ (P27986 whole entry partner, the tested form may be a part, canonical isoform): as the sequence (P27986 whole entry partner) above
Sequence of PI3Kγ (P48736 whole entry): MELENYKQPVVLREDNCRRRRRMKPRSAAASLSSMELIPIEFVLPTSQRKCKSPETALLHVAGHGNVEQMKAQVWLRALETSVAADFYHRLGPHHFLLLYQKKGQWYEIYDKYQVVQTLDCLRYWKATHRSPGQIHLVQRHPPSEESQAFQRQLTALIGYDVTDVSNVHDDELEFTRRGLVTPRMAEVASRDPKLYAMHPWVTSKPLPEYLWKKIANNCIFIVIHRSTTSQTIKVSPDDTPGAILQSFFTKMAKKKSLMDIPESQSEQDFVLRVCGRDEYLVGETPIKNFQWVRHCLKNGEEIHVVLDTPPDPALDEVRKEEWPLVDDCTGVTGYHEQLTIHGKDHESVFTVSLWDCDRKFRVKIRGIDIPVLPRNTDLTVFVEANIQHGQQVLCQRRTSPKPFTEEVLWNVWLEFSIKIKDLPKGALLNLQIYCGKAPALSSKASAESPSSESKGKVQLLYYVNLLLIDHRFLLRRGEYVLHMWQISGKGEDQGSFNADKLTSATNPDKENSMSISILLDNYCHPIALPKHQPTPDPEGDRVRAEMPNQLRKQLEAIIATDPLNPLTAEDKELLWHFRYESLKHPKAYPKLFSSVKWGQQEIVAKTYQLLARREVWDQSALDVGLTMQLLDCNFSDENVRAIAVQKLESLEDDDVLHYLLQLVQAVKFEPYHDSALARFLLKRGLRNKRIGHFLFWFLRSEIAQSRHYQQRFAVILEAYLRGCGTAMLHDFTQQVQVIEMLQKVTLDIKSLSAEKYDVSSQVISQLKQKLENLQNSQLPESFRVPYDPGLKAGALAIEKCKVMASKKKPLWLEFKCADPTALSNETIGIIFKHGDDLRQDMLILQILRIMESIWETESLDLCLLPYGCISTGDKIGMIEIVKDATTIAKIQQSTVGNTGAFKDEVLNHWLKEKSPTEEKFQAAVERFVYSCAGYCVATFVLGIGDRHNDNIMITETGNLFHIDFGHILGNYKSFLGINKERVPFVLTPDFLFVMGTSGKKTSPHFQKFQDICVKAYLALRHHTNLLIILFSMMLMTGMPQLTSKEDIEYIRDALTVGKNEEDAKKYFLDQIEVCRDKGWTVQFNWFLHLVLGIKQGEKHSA

A word on the IC50: it is the concentration that inhibits the measured activity by half. Turning to `N#Cc1c(N)nc(N)nc1N[C@H](c1nc2c(Cl)ccc(Cl)c2c(=O)n1[C@H]1C[C@@H](O)C1)C1CC1` [Compound 96, 2,4-diamino-6-(((S)-cyclopropyl(5,8-dichloro-3-((cis)-3-hydroxycyclobutyl)-4-oxo-3,4-dihydroquinazolin-2-yl)methyl)amino)pyrimidine-5-carbonitrile], the IC50 in assay [1] came out at 10 nM; in assay [2], 960 nM; in assay [3], 2 nM.

Consider `N#Cc1c(N)nc(N)nc1N[C@H](c1nc2c(Cl)cc(F)cc2c(=O)n1[C@H]1C[C@H](O)C1)C1CC1` [Compound 97, 2,4-diamino-6-(((S)-(8-chloro-6-fluoro-3-((trans)-3-hydroxycyclobutyl)-4-oxo-3,4-dihydroquinazolin-2-yl)(cyclopropyl)methyl)amino)pyrimidine-5-carbonitrile], for which the results for the IC50 in assay [1], in assay [2] and in assay [3] were 58 nM, 2800 nM and 8 nM, respectively.

`C[C@H](Nc1nc(N)nc(N)c1C#N)c1nc2c(Cl)cc(F)cc2c(=O)n1[C@H]1C[C@H](O)C1` [Compound 98, 2,4-diamino-6-(((S)-1-(8-chloro-6-fluoro-3-((trans)-3-hydroxycyclobutyl)-4-oxo-3,4-dihydroquinazolin-2-yl)ethyl)amino)pyrimidine-5-carbonitrile]: the IC50 in assay [1] came to 330 nM; in assay [2], 3200 nM; in assay [3], 20 nM.

In the case of `C[C@H](Nc1nc(N)nc(N)c1C#N)c1nc2c(Cl)cc(F)cc2c(=O)n1[C@H]1C[C@@H](O)C1` [Compound 99, 2,4-diamino-6-(((S)-1-(8-chloro-6-fluoro-3-((cis)-3-hydroxycyclobutyl)-4-oxo-3,4-dihydroquinazolin-2-yl)ethyl)amino)pyrimidine-5-carbonitrile], the concentration for half-maximal inhibition (IC50) worked out at 290 nM in assay [1], 2400 nM in assay [2] and 9 nM in assay [3].

In the case of `N#Cc1c(N)nc(N)nc1N[C@H](c1nc2c(Cl)ccc(Cl)c2c(=O)n1[C@H]1C[C@H](O)C1)C1CC1` [Compound 100, 2,4-diamino-6-(((S)-cyclopropyl(5,8-dichloro-3-((trans)-3-hydroxycyclobutyl)-4-oxo-3,4-dihydroquinazolin-2-yl)methyl)amino)pyrimidine-5-carbonitrile], the figures for the IC50 in assay [1], in assay [2] and in assay [3] were 44 nM, 2900 nM and 3 nM, respectively.

On to `C[C@H](Nc1nc(N)nc(N)c1C#N)c1nc2c(Cl)ccc(Cl)c2c(=O)n1[C@H]1C[C@H](O)C1` [Compound 101, 2,4-diamino-6-(((S)-1-(5,8-dichloro-3-((trans)-3-hydroxycyclobutyl)-4-oxo-3,4-dihydroquinazolin-2-yl)ethyl)amino)pyrimidine-5-carbonitrile], for which the half-maximal inhibitory concentration (IC50) was determined as 140 nM in assay [1], 3200 nM in assay [2] and 12 nM in assay [3].

With `N#Cc1c(N)nc(N)nc1N[C@H](c1nc2c(Cl)cc(F)cc2c(=O)n1[C@H]1C[C@@H](O)C1)C1CC1` [Compound 102, 2,4-diamino-6-(((S)-(8-chloro-6-fluoro-3-((cis)-3-hydroxycyclobutyl)-4-oxo-3,4-dihydroquinazolin-2-yl)(cyclopropyl)methyl)amino)pyrimidine-5-carbonitrile], the IC50 worked out at 66 nM in assay [1], 1100 nM in assay [2] and 2 nM in assay [3].

`C[C@H](Nc1nc(N)nc(N)c1C#N)c1nc2c(Cl)ccc(Cl)c2c(=O)n1[C@H]1C[C@@H](O)C1` [Compound 103, 2,4-diamino-6-(((S)-1-(5,8-dichloro-3-((cis)-3-hydroxycyclobutyl)-4-oxo-3,4-dihydroquinazolin-2-yl)ethyl)amino)pyrimidine-5-carbonitrile]: the figures for the IC50 in assay [1], in assay [2] and in assay [3] were 21 nM, 2600 nM and 5 nM, respectively.

`C[C@H](Nc1nc(N)nc(N)c1C#N)c1nc2cccc(Cl)c2c(=O)n1CCC#N` [Compound 104, (S)-2,4-diamino-6-((1-(5-chloro-3-(2-cyanoethyl)-4-oxo-3,4-dihydroquinazolin-2-yl)ethyl)amino)pyrimidine-5-carbonitrile]: the IC50 in assay [1] worked out at 58 nM; in assay [2], 78 nM; in assay [3] it was 9 nM.

As for `COCCCn1c([C@H](C)Nc2ncnc(N)c2C#N)nc2cccc(Cl)c2c1=O` [Compound 105, (S)-4-amino-6-((1-(5-chloro-3-(3-methoxypropyl)-4-oxo-3,4-dihydroquinazolin-2-yl)ethyl)amino)pyrimidine-5-carbonitrile], the concentration for half-maximal inhibition (IC50) in assay [1] came to 820 nM; in assay [2], 8400 nM; in assay [3], 9 nM.

On to `COCCCn1c([C@H](C)Nc2ncnc(N)c2C#N)nc2c(Cl)ccc(Cl)c2c1=O` [Compound 106, (S)-4-amino-6-((1-(5,8-dichloro-3-(3-methoxypropyl)-4-oxo-3,4-dihydroquinazolin-2-yl)ethyl)amino)pyrimidine-5-carbonitrile], for which the results for the IC50 in assay [1], in assay [2] and in assay [3] were 590 nM, over 10000 nM and 8 nM, respectively.

As to `COCCCn1c([C@H](C)Nc2nc(N)nc(N)c2C#N)nc2c(Cl)ccc(Cl)c2c1=O` [Compound 107, (S)-2,4-diamino-6-((1-(5,8-dichloro-3-(3-methoxypropyl)-4-oxo-3,4-dihydroquinazolin-2-yl)ethyl)amino)pyrimidine-5-carbonitrile], the IC50 in assay [1] stood at 82 nM; in assay [2] it was 1700 nM; in assay [3], 3 nM.

Take `COCCCn1c([C@H](C)Nc2ncnc(N)c2C#N)nc2c(F)ccc(F)c2c1=O` [Compound 108, (S)-4-amino-6-((1-(5,8-difluoro-3-(3-methoxypropyl)-4-oxo-3,4-dihydroquinazolin-2-yl)ethyl)amino)pyrimidine-5-carbonitrile]: the half-maximal inhibitory concentration (IC50) was 2000 nM in assay [1], at least 10000 nM in assay [2] and 39 nM in assay [3].

As to `COCCCn1c([C@H](C)Nc2nc(N)nc(N)c2C#N)nc2c(F)ccc(F)c2c1=O` [Compound 109, (S)-2,4-diamino-6-((1-(5,8-difluoro-3-(3-methoxypropyl)-4-oxo-3,4-dihydroquinazolin-2-yl)ethyl)amino)pyrimidine-5-carbonitrile], the half-inhibitory concentration (IC50) came to 520 nM in assay [1], 2180 nM in assay [2] and 14 nM in assay [3].

For the molecule `C[C@H](Nc1nc(N)nc(N)c1C#N)c1nc2cccc(Cl)c2c(=O)n1CCCC#N` [Compound 110, (S)-2,4-diamino-6-((1-(5-chloro-3-(3-cyanopropyl)-4-oxo-3,4-dihydroquinazolin-2-yl)ethyl)amino)pyrimidine-5-carbonitrile], the 50% inhibitory concentration (IC50) in assay [1] is 42 nM; in assay [2], 180 nM; in assay [3] it was 4 nM.

On to `C[C@H](Nc1nc(N)nc(N)c1C#N)c1nc2cccc(Cl)c2c(=O)n1CCCS(C)(=O)=O` [Compound 111, (S)-2,4-diamino-6-((1-(5-chloro-3-(3-(methylsulfonyl)propyl)-4-oxo-3,4-dihydroquinazolin-2-yl)ethyl)amino)pyrimidine-5-carbonitrile], for which the concentration for half-maximal inhibition (IC50) in assay [1] stood at 40 nM; in assay [2], 530 nM; in assay [3] it was 3 nM.

As to `N#CCCn1c([C@@H](Nc2nc(N)nc(N)c2C#N)C2CC2)nc2cccc(Cl)c2c1=O` [Compound 112, (S)-2,4-diamino-6-(((5-chloro-3-(2-cyanoethyl)-4-oxo-3,4-dihydroquinazolin-2-yl)(cyclopropyl)methyl)amino)pyrimidine-5-carbonitrile], the IC50 came to 8 nM in assay [1], 62 nM in assay [2] and 3 nM in assay [3].
